For 25 compounds, EC50 results are on record in patent US8796256B2 (Janssen Pharmaceutica NV, priority 2010, dated 2014).

In this assay the target is T1, ERR1 (also known as ERR-α or ERR-1) (Homo sapiens, UniProt P11474).
T1 sequence (P11474 193-421 limits assumed): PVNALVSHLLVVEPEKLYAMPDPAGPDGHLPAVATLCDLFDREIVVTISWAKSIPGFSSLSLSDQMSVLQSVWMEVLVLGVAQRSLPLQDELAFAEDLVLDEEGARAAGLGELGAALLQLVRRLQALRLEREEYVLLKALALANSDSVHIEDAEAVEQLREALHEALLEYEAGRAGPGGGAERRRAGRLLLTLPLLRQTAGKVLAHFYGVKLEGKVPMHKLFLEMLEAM
Briefly: TR-FRET assay (disruption of co-activator peptide binding to ERR1 LBD). In kind it is biochemical. The following applies: 6 nM 6His-ERR1LBD, 6 nM GST-SRC-2 peptide; average of 3 independent experiments. The method in brief:
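Homogeneous TR-FRET measuring displacement of GST-hSRC2 co-activator peptide (6 nM) from His-tagged ERR1 LBD (6 nM), detected with α-GST Eu cryptate (30 nM) and α-His-XL665 (7.5 nM). Buffer 25 mM Tris pH 8, 2.5 mM Hepes, 20 mM KCl, 1 mM DTT, 0.05 mg/mL delipidated BSA; equilibration 4-18 h at 25° C. Hyperbolic dose-response fit, mean of 3 experiments.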
(In general: Time-resolved FRET reads energy transfer from a long-lived donor to a nearby acceptor.)
What is called EC50 is the concentration that produces a half-maximal response. Turning to `O=C(CN1C(=O)S/C(=C\c2ccc3c(ccn3Cc3ccc(C(F)(F)F)cc3C(F)(F)F)c2)C1=O)N1CCOCC1` [Compound 241, (5Z)-5-[(1-{[2,4-Bis(trifluoromethyl)phenyl]methyl}-1H-indol-5-yl)methylidene]-3-(2-morpholin-4-yl-2-oxoethyl)-1,3-thiazolidine-2,4-dione], the EC50 came out at 100 nM.

Compound `CC[C@@H](CN1C(=O)S/C(=C\c2ccc3c(cnn3Cc3ccc(Cl)cc3C(F)(F)F)c2)C1=O)NS(C)(=O)=O` [Compound 156, N-[(1S)-1-{[(5Z)-5-({1-[4-Chloro-2-(trifluoromethyl)benzyl]-1H-indazol-5-yl}methylidene)-2,4-dioxo-1,3-thiazolidin-3-yl]methyl}propyl] methanesulfonamide] displayed an EC50 of 27 nM.

In turn, `O=C1S/C(=C\c2ccc3c(cnn3Cc3ccc(Cl)cc3C(F)(F)F)c2)C(=O)N1C[C@H]1CN2CCOC[C@H]2CO1` [Compound 204, (5Z)-5-({1-[4-Chloro-2-(trifluoromethyl)benzyl]-1H-indazol-5-yl}methylidene)-3-[(3R,9aS)-hexahydro-1H-[1,4]oxazino[3,4-c] [1,4]oxazin-3-ylmethyl]-1,3-thiazolidine-2,4-dione] displayed an EC50 of 46 nM.

The compound `COc1ccc(Cn2ncc3cc(/C=C4\SC(=O)N(C5CCNCC5)C4=O)ccc32)c(C(F)(F)F)c1` [Compound 26, (5Z)-5-({1-[4-Methoxy-2-(trifluoromethyl)benzyl]-1H-indazol-5-yl}methylidene)-3-piperidin-4-yl-1,3-thiazolidine-2,4-dione] had an EC50 of 67 nM.

Consider `CN1C(=O)S/C(=C\c2ccc3c(cnn3Cc3ccc(Cl)cc3C(F)(F)F)c2)C1=O` [Compound 127, (5Z)-5-({1-[4-Chloro-2-(trifluoromethyl)-benzyl]-1H-indazol-5-yl}methylidene)-3-methyl-1,3-thiazolidine-2,4-dione], for which it took 32 nM to reach a half-maximal effect (EC50).

`O=C1S/C(=C\c2ccc3c(c2)nnn3Cc2ccc(Cl)cc2C(F)(F)F)C(=O)N1Cc1nc[nH]n1` [Compound 264, (5Z)-5-({1-[4-Chloro-2-(trifluoromethyl)benzyl]-1H-benzotriazol-5-yl}methylidene)-3-(1H-1,2,4-triazol-3-ylmethyl)-1,3-thiazolidine-2,4-dione] gave an EC50 of 16 nM.

For the compound `O=C1S/C(=C\c2ccc3c(cnn3Cc3ccc(Cl)cc3C(F)(F)F)c2)C(=O)N1Cc1nc[nH]n1` [Compound 90, (5Z)-5-({1-[4-Chloro-2-(trifluoromethyl)benzyl]-1H-indazol-5-yl}methylidene)-3-(1H-1,2,4-triazol-3-ylmethyl)-1,3-thiazolidine-2,4-dione], it took 28 nM to reach a half-maximal effect (EC50).

In turn, `COc1nn(Cc2ccc(Cl)cc2C(F)(F)F)c2ccc(/C=C3\SC(=O)N(C4CCNCC4)C3=O)cc12` [Compound 29, (5Z)-5-({1-[4-Chloro-2-(trifluoromethyl)benzyl]-3-methoxy-1H-indazol-5-yl}methylidene)-3-piperidin-4-yl-1,3-thiazolidine-2,4-dione] gave an EC50 of 95 nM.

For the compound `O=C1S/C(=C\c2ccc3c(cnn3Cc3ccc(Cl)cc3C(F)(F)F)c2)C(=O)N1N1CCOCC1` [Compound 359, (5Z)-5-({1-[4-Chloro-2-(trifluoromethyl)benzyl]-1H-indazol-5-yl}methylidene)-3-morpholin-4-yl-1,3-thiazolidine-2,4-dione], a half-maximal effect (EC50) was put at 26 nM.

For the compound `O=C(O)C1CCC(N2C(=O)S/C(=C\c3ccc4c(c3)c(Cl)nn4Cc3ccc(Cl)cc3C(F)(F)F)C2=O)CC1` (stereo not shown) [Compound 302, 4-[(5Z)-5-({3-Chloro-1-[4-chloro-2-(trifluoromethyl)benzyl]-1H-indazol-5-yl}methylidene)-2,4-dioxo-1,3-thiazolidin-3-yl] cyclohexanecarboxylic acid], the EC50 came to 2 nM.

In the case of `CCN1CCC(N2C(=O)S/C(=C\c3ccc4c(c3)c(OC)nn4Cc3ccc(Cl)cc3C(F)(F)F)C2=O)CC1` [Compound 30, (5Z)-5-({1-[4-Chloro-2-(trifluoromethyl)benzyl]-3-methoxy-1H-indazol-5-yl}methylidene)-3-(1-ethylpiperidin-4-yl)-1,3-thiazolidine-2,4-dione], the EC50 was 96 nM.

The compound `CN1CCC(F)(CN2C(=O)S/C(=C\c3ccc4c(cnn4Cc4ccc(Cl)cc4C(F)(F)F)c3)C2=O)CC1` [Compound 304, (5Z)-5-({1-[4-Chloro-2-(trifluoromethyl)benzyl]-1H-indazol-5-yl}methylidene)-3-[(4-fluoro-1-methylpiperidin-4-yl)methyl]-1,3-thiazolidine-2,4-dione] gave an EC50 of 7 nM.

In the case of `O=C1S/C(=C\c2ccc3c(cnn3Cc3ccc(C(F)(F)F)cc3C(F)(F)F)c2)C(=O)N1[C@@H]1CCNC[C@H]1O` (relative stereo) [Compound 271, (5Z)-5-({1-[2,4-Bis(trifluoromethyl)benzyl]-1H-indazol-5-yl}methylidene)-3-[trans-3-hydroxypiperidin-4-yl]-1,3-thiazolidine-2,4-dione], the EC50 turned out to be 38 nM.

With `CN1CC(N2C(=O)S/C(=C\c3ccc4c(cnn4Cc4ccc(Cl)cc4C(F)(F)F)c3)C2=O)C1` [Compound 133, (5Z)-5-({1-[4-Chloro-2-(trifluoromethyl)benzyl]-1H-indazol-5-yl}methylidine)-3-(1-methylazetidin-3-yl)-1,3-thiazolidine-2,4-dione], the EC50 was 20 nM.

For `N#CCN1CC[C@@H](N2C(=O)S/C(=C\c3ccc4c(cnn4Cc4ccc(Cl)cc4C(F)(F)F)c3)C2=O)[C@H](F)C1` [Compound 388, {(3R,4R)-4-[(5Z)-5-({1-[4-Chloro-2-(trifluoromethyl)benzyl]-1H-indazol-5-yl}methylidene)-2,4-dioxo-1,3-thiazolidin-3-yl]-3-fluoropiperidin-1-yl}acetonitrile], it took 34 nM to reach a half-maximal effect (EC50).

Consider `O=C(O)c1ccc(CN2C(=O)S/C(=C\c3ccc4c(cnn4Cc4ccc(Cl)cc4C(F)(F)F)c3)C2=O)cc1` [Compound 377, 4-{[(5Z)-5-({1-[4-Chloro-2-(trifluoromethyl)benzyl]-1H-indazol-5-yl}methylidene)-2,4-dioxo-1,3-thiazolidin-3-yl]methyl}benzoic acid], for which the EC50 worked out at 67 nM.

The compound `COCCN1CCC(N2C(=O)S/C(=C\c3ccc4c(cnn4Cc4ccc(Cl)cc4C(F)(F)F)c3)C2=O)CC1` [Compound 147, (5Z)-5-({1-[4-Chloro-2-(trifluoromethyl)benzyl]-1H-indazol-5-yl}methylidene)-3-[1-(2-methoxyethyl)piperidin-4-yl]-1,3-thiazolidine-2,4-dione] registered an EC50 of 36 nM.

The compound `O=C1S/C(=C\c2ccc3c(cnn3Cc3ccc(Cl)cc3C(F)(F)F)c2)C(=O)N1[C@@H]1CCNC[C@H]1F` [Compound 381, (5Z)-5-({1-[4-Chloro-2-(trifluoromethyl)benzyl]-1H-indazol-5-yl}methylidene)-3-[(3R,4R)-3-fluoropiperidin-4-yl]-1,3-thiazolidine-2,4-dione] returned an EC50 of 28 nM.

The compound `O=C1S/C(=C\c2ccc3c(cnn3Cc3ccc(Cl)cc3C(F)(F)F)c2)C(=O)N1C1CCNCC1(F)F` (stereo not shown) [Compound 345, (5Z)-5-({1-[4-Chloro-2-(trifluoromethyl)benzyl]-1H-indazol-5-yl}methylidene)-3-(3,3-difluoropiperidin-4-yl)-1,3-thiazolidine-2,4-dione] gave an EC50 of 18 nM.

Consider `O=C1S/C(=C\c2ccc3c(cnn3Cc3ccc(Cl)cc3C(F)(F)F)c2)C(=O)N1N1CCNCC1` [Compound 351, (5Z)-5-({1-[4-Chloro-2-(trifluoromethyl)benzyl]-1H-indazol-5-yl}methylidene)-3-piperazin-1-yl-1,3-thiazolidine-2,4-dione], for which the EC50 was 22 nM.

Take `COC(=O)C(C1CCN(C(=O)OC(C)(C)C)CC1)N1C(=O)S/C(=C\c2ccc3c(cnn3Cc3ccc(Cl)cc3C(F)(F)F)c2)C1=O` (stereo not shown) [Compound 215, tert-Butyl 4-{1-[(5Z)-5-({1-[4-chloro-2-(trifluoromethyl)benzyl]-1H-indazol-5-yl}methylidene)-2,4-dioxo-1,3-thiazolidin-3-yl]-2-methoxy-2-oxoethyl}piperidine-1-carboxylate]: a half-maximal effect (EC50) was put at 61 nM.

With `CN(C)CCN1C(=O)S/C(=C\c2ccc3c(ccn3Cc3ccc(F)cc3C(F)(F)F)c2)C1=O` [Compound 250, (5Z)-3-[2-(Dimethylamino)ethyl]-5-[(1-{[4-fluoro-2-(trifluoromethyl)phenyl]methyl}-1H-indol-5-yl)methylidene]-1,3-thiazolidine-2,4-dione], a half-maximal response (EC50) required 200 nM.

For `O=C(NC1(CN2C(=O)S/C(=C\c3ccc4c(cnn4Cc4ccc(C(F)(F)F)cc4C(F)(F)F)c3)C2=O)CCOCC1)C1CC1` [Compound 311, N-(4-{[(5Z)-5-({1-[2,4-Bis(trifluoromethyl)benzyl]-1H-indazol-5-yl}methylidene)-2,4-dioxo-1,3-thiazolidin-3-yl]methyl}tetrahydro-2H-pyran-4-yl) cyclopropanecarboxamide], the EC50 is 133 nM.

The compound `O=C(O)[C@@H]1C[C@@H](N2C(=O)S/C(=C\c3ccc4c(cnn4Cc4ccc(Cl)cc4C(F)(F)F)c3)C2=O)CN1` [Compound 181, (4R)-4-[(5Z)-5-({1-[4-Chloro-2-(trifluoromethyl)benzyl]-1H-indazol-5-yl}methylidene)-2,4-dioxo-1,3-thiazolidin-3-yl]-L-proline] gave an EC50 of 25 nM.

In turn, `NS(=O)(=O)NC(=O)CN1C(=O)S/C(=C\c2ccc3c(cnn3Cc3ccc(C(F)(F)F)cc3C(F)(F)F)c2)C1=O` [Compound 87, 2-[(5Z)-5-({1-[2,4-Bis(trifluoromethyl)benzyl]-1H-indazol-5-yl}methylidene)-2,4-dioxo-1,3-thiazolidin-3-yl]-N-sulfamoylacetamide] displayed an EC50 of 650 nM.
